According to patent US11413348B2, “Low molecular weight cationic lipids for oligonucleotide delivery” (SIRNA THERAPEUTICS, INC., priority 2010, dated 2022):

Target: T1, ApoE (Macaca mulatta, UniProt Q28502)
T1 construct: from tissue; host or cells: rhesus serum
Assay: In vitro ApoE binding assay (anti-PEG capture, ApoE ELISA, stem-loop RT-PCR)
Details: LNP 4 ug/mL in 90% rhesus serum, 37° C., 20 minutes; estimate of 500 siRNA per LNP
Description: LNPs are incubated at 37° C. in 90% rhesus serum at a final LNP concentration of 4 ug/mL. Incubation is for 20 minutes with orbital rotation. After incubation, the samples are diluted 1:20 in PBS and 100 uL of each diluted sample is aliquoted to wells of an anti-PEG antibody coated 96-well plate (Life Diagnostics Cat. No. P-0001PL. After incubation at room temperature for 1 hour, the plate is washed 5× with 300 uL PBS. After washing, 50 uL of 0.2% Triton X-100 is added to each well and the plate incubated at 37° C. for 10 minutes, followed by shaking on a plate shaker for 1 minute at 750 rpm. Samples are frozen prior to performing the ApoE ELISA and stem loop PCR analysis of samples.
An ApoE ELISA assay is performed to quantitate ApoE bound to the LNPs after incubation in rhesus serum. Anti-ApoE antibody (Milipore, Cat No. AB947) is diluted 1:1000 in PBS and 100 uL of diluted antibody is added to each well of a polystyrene high binding plate. The plate with antibody is incubated overnight at 4° C., after which the plate is washed 2× with 200 uL of PBS. Next, 200 uL of buffer containing 1% BSA and 0.05% Tween-20 in PBS (Incubation Buffer) is added to each well followed by incubation at room temperature for 1 hour. Plates are washed 5× with PBS containing 0.05% Tween-20. Frozen Triton lysis test samples are thawed and diluted 1:6 with incubation buffer and 100 uL of test sample is aliquoted to wells of the ApoE antibody plate. Incubation is for 1 hour at room temperature followed by a 5× wash with PBS containing 0.05% Tween-20. After washing, 100 uL of biotinylated anti-ApoE antibody (Mabtech, Cat. ANo. E887-biotin), diluted 1:500 in incubation buffer, is added to each well and incubated for 1 hour at room temperature, followed by a 5× wash with 0.05% Tween-20 in PBS. 100 uL per well, of Streptavidin-HPR (Thermo, Cat. No. TS-125-HR), is then added and incubated for 1 hour at room temperature. After washing 5× with 0.05% Tween-20 in PBS, 100 uL of TMB Substrate (Thermo, Cat. No. 34028) is added to each well, followed by incubation at room temperature for 20 minutes in the dark. The calorimetric reaction is slopped with 100 uL of TMB Stop Solution (KPL, Cat. No. 50-85-04) and absorbance at 450 nm is determined. An ApoE standard curve is prepared by diluting rhesus Recombinant ApoE in incubation buffer with 0.03% Triton X-100 with concentrations ranging from 100 ng/mL to 0.78 ng/mL. ApoE standards are evaluated in the ELISA in parallel to the test samples. A rhesus serum only (no LNP) control is utilized to obtain a background subtraction for non-LNP dependent ApoE signal in the ELISA.
To normalize to the ApoE bound to the amount of LNP bound to the anti-PEG antibody plate, the amount of siRNA retained in the anti-PEG antibody well is quantitated by stem-loop PCR and related to the number of siRNAs encapsulated per LNP, to give an approximate measure of total LNP particles bound per well.
The standard curve is prepared using the molecular weight of the siRNA (13693 g/mol for ApoB 17063) to calculate the copy number. The high standard should contain 10^11 copies per 3 μl. A 10-fold serial dilution is performed across a row of an assay plate until the lowest standard contains 10^2 copies per 3 μl. Dilute 0.2% Triton X-100 1:80 in water and pipette 20 uL of the diluted Triton X-100 into 10 wells of a 96 well plate. 30 uL of the serial diluted standard curve and mix are added to each well of the plate. 10 uL of the spiked standard curve is used in the reverse transcription reaction.
Triton lysates from the PEG antibody plate capture are diluted 1 to 2000 in nuclease free water. 10 uL of ‘RT-Primer Mix’ (Applied Biosystem's TaqMan MicroRNA Reverse Transcription Kit Cat. No. 4366596) is added to each well of a 96-well Micro-Amp QPCR plate (ABI Cat #N801-0560).
[…] of each test sample (diluted 1 to 2000) or spiked standard curve (above) are aliquoted into the 96-well plate. […]

T1 sequence (Q28502 19-295): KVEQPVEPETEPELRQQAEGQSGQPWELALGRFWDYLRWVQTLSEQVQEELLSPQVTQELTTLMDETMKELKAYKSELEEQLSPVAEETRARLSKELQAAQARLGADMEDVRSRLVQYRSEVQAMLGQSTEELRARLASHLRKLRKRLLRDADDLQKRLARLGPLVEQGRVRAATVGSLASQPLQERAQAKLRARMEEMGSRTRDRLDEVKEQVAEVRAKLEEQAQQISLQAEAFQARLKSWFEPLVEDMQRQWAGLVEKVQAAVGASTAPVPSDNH

SMILES | ApoE Molecules/LNP [Molecules/LNP]
CCCCC/C=C\C/C=C\CCCCCCCC(CCCCCCCCC)N(C)C (centres unmarked) [Compound 8, (18Z,21Z)—N,N-dimethylheptacosa-18,21-dien-10-amine] | 4.9
CCCCC/C=C\C/C=C\CCCCCCCCCCCC(CCCCCCCC)N(C)C (centres unmarked) [Compound 16, (21Z,24Z)—N,N-dimethyltriaconta-21,24-dien-9-amine] | 3.3
CCCCCCCCCCC/C=C\CCCCC(CCCCCCCCC)N(C)C (centres unmarked) [Compound 24, (15Z)—N,N-dimethylheptacos-15-en-10-amine] | 1.2
CCCCCCCCCCCCCC/C=C\CCCC(CCCCCCCCC)N(C)C (centres unmarked) [Compound 25, (14Z)—N,N-dimethylnonacos-14-en-10-amine] | 13.7
CCCCCCCC/C=C\CCCCCCCCCC(CCCCCCCCC)N(C)C (centres unmarked) [Compound 28, (20Z)—N,N-dimethylnonacos-20-en-10-amine] | 4.7
CCCCCCCC/C=C\CCCCCCCCCCCC(CCCCCCCCC)N(C)C (centres unmarked) [Compound 29, (22Z)—N,N-dimethylhentriacont-22-en-10-amine] | 38
CCCCCCCCCC(CCCCCCCCC[C@H]1C[C@H]1CCCCCC)N(C)C (stereo partly drawn) [Compound 34, 1-[(1S,2R)-2-hexylcyclopropyl]-N,N-dimethylnonadecan-10-amine] | 2.3
CCCCC/C=C\C/C=C\CCCCCCCCC1(CCCCCCCC/C=C\C/C=C\CCCCC)OCC(CCN(C)C)O1 (centres unmarked) [Compound 45, DLinKC2DMA, reference compound] | 32.5

Target: T2, serum ApoE (Macaca mulatta, UniProt Q28502)
T2 construct: from tissue; host or cells: rhesus monkey serum
T2 sequence (Q28502 19-295): as above
Assay: Heparin Sepharose HI-TRAP binding assay
Design: species or system rhesus monkey
Details: HI-TRAP binding upon rhesus serum incubation, 2×DPBS conditions
Description: Lipid nanoparticles (LNP) with neutral surface charge are not retained after injection onto heparin sepharose with 1× Dulbecco's phosphate buffered saline (DPBS) as the running buffer but elute in the column void volume. […] Lipid nanoparticles with surface bound ApoE bind to heparin sepharose with high affinity and are eluted only at high salt (1M NaCl).
Lipid nanoparticles were incubated at 37° C. for 20 min at a final siRNA concentration of 50 μg/mL with various concentrations of either purified or recombinant human apolipoprotein E or 0.1-50% rat/mouse/rhesus monkey/human serum in 1× Dulbccco's phosphate buffered saline (DPBS). After incubation with ApoE or serum LNP samples were diluted 10-fold using 1×DPBS and analyzed by heparin sepharose chromatography. Peak area of retained LNP (after subtraction of appropriate blank signals) is compared to total peak area of LNP control without ApoE and/or serum incubation to determine the percentage of the LNP which undergoes shift to high affinity heparin interaction after incubation with ApoE/serum.
A heparin sepharose HI-TRAP™ chromatography column (GE Healthcare; 1 mL bed volume) is equilibrated with either 1× or 2× Dulbecco's PBS; the higher 2× salt concentration is used for LNPs with higher intrinsic retention on heparin sepharose (presumably due to higher positive surface charge). • Mobile Phase A: 1× or 2×DPBS • Mobile Phase B: 1M NaCl in 10 mM sodium phosphate buffer, pH 7.0 • 100% A delivered isocratically for 10 min followed by step gradient to 100% B; hold for additional 10 min; step gradient back to 100% A and reequilibrate for additional 10 min prior to injection of next sample • Flow rate: 1 mL/min • Sample injection volume: 50 μL. • Detection: UV @260 nm HI-TRAP™ Binding Results Upon Rhesus Serum Incubation (2×DPBS Conditions)

SMILES | % Bound [%]
CCCCC/C=C\C/C=C\CCCCCCCCC1(CCCCCCCC/C=C\C/C=C\CCCCC)OCC(CCN(C)C)O1 (centres unmarked) [Compound 45, DLinKC2DMA, reference compound] | 58
CCCCC/C=C\C/C=C\CCCCCCCCC(CCCCCCCC/C=C\C/C=C\CCCCC)OC(=O)CCCN(C)C [Compound 46, MC3, reference compound] | 7

Tested on: mRNA transcript for the firefly (Photinus pyralis) luciferase gene
Assay: Mouse in vivo evaluation of efficacy (luciferase siRNA LNPs, liver luminescence)
Details: Luc siRNA RDV, tail vein, 48 hours post dose, FIG. 1
Description: LNPs utilizing Compounds 1-44, in the nominal compositions described immediately above, were evaluated for in vivo efficacy. The siRNA targets the mRNA transcript for the firefly (Photinus pyralis) luciferase gene (Accession #M15077). […] The in vivo luciferase model employs a transgenic mouse in which the firefly luciferase coding sequence is present in all cells. ROSA26-LoxP-Stop-LoxP-Luc (LSL-Luc) transgenic mice licensed from the Dana Farber Cancer Institute are induced to express the Luciferase gene by first removing the LSL sequence with a recombinant Ad-Cre virus (Vector Biolabs). Due to the organo-tropic nature of the virus, expression is limited to the liver when delivered via tail vein injection. Luciferase expression levels in liver are quantitated by measuring light output, using an IVIS imager (Xenogen) following administration of the luciferin substrate (Caliper Life Sciences). Pre-dose luminescence levels are measured prior to administration of the RDVs. Luciferin in PBS (15 mg/mL) is intraperitoneally (IP) injected in a volume of 150 μL. After a four minute incubation period mice are anesthetized with isoflurane and placed in the IVIS imager. The RDVs (containing siRNA) in PBS vehicle were tail vein injected in a volume of 0.2 mL. […] In vivo efficacy results are expressed as % inhibition of luminescence relative to pre-dose luminescence levels. […]

SMILES | efficacy (% inhibition of luminescence) compared with RDV containing octyl-CLinDMA (OCD)
CCCCC/C=C\C/C=C\CCCCCCCCCC(CCCCCCCCC)N(C)C (centres unmarked) [Compound 1, (20Z,23Z)—N,N-dimethylnonacosa-20,23-dien-10-amine] | Greater efficacy
